# Test results: article PMC7767053, “Functional Analysis of Odorant-Binding Proteins 12 and 17 from Wheat Blossom Midge Sitodiplosis mosellana Géhin (Diptera: Cecidomyiidae)” (Insects, 2020)
# Entries after “also recorded” stand apart in the source; their conditions may differ. Read-outs that look alike come from different tables or passages of the source.
# Assays:
# SmosOBP12 = SmosOBP12 (Sitodiplosis mosellana, UniProt A0A346RTY7); assay: Fluorescence competitive binding assay with 1-NPN probe, recombinant SmosOBP12; conditions: for Ki: calculated from IC50, Ki = [IC50]/(1 + [1-NPN]/K1-NPN), read-out: SmosOBP12 Ki
# Sequence of SmosOBP12 (A0A346RTY7 entry or part of it): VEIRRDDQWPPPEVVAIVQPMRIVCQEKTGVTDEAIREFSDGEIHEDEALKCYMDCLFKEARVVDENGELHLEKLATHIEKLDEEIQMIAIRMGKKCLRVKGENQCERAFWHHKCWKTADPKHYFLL
# Description: (§1) To determine binding affinities of SmosOBP12 and SmosOBP17 to host plant volatile compounds, fluorescence competitive binding assays were conducted using 1-N-phenyl-naphthylamine (1-NPN) as the fluorescent probe. Twenty-eight volatile compounds from winter wheat (Table 2) were selected based on our previous research. Both the probe and candidate ligands were dissolved in chromatographic-grade methanol to obtain 1 mM stock solutions, whereas recombinant SmosOBPs were diluted in 20 mM Tris-HCl (pH 7.4) to 2 μM. Fluorescence intensity was detected on an F-4600 fluorescence spectrophotometer (Hitachi, Tokyo, Japan) with a 1 cm light path quartz cuvette. Slits of both excitation and emissions were 10 nm in width. The probe was excited at 337 nm, and emission spectra were recorded between 370 and 550 nm.
# (§2) Affinities of SmosOBPs to tested volatile ligands were measured by competition assays: to the 1 mL solution containing 2 μM recombinant protein and 2 μM 1-NPN, 1 mM solution of each putative volatile ligand (in a 2 µL aliquot) was added to final concentrations of 2–14 μM for SmosOBP12 and 2–40 μM for SmosOBP17, respectively. Maximal fluorescence intensities were plotted against ligand concentrations. Data were obtained from three independent measurements.
# (§3) The Kd value was calculated using GraphPad Prism 5 (GraphPad Software Inc., La Jolla, CA, USA) via nonlinear regression for a unique site of binding. The inhibition constant (Ki) of each ligand competitor was calculated from the corresponding IC50 value (the concentration of competitor displacing 50% of initial fluorescence intensity) according to the equation: Ki = [IC50]/(1 + [1-NPN]/K1-NPN), where [1-NPN] is the free concentration of 1-NPN, and K1-NPN is the dissociation constant of the SmosOBPs/1-NPN complex.
# SmosOBP17 = SmosOBP17 (Sitodiplosis mosellana, UniProt A0A346RTY9); assay: Fluorescence competitive binding assay with 1-NPN probe, recombinant SmosOBP17
# Sequence of SmosOBP17 (A0A346RTY9 entry or part of it): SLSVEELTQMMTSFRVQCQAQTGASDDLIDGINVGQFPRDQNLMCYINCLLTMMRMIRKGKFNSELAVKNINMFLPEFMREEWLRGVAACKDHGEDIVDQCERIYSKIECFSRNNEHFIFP
# Description: as §1, §2, §3
# S. mosellana females = assay: Y-tube olfactometer bioassay; assay type: in vivo, Sitodiplosis mosellana; conditions: 10 μL of 20 μg/μL in paraffin oil vs paraffin oil control; 60 females
# Description: Behavioral responses of S. mosellana females to the 28 volatile ligands were measured in a glass Y-tube olfactometer. The base and two arms of the Y-tube are 15 cm in length and 25 mm in internal diameter. The angle between arms is 60°. A 10 μL aliquot of the test chemical in paraffin oil at a concentration of 20 μg/μL [45] was applied to a filter paper strip (20 × 20 mm), which was allowed to evaporate for 20 s and then placed into one of the two odor bottles. The other odor bottle contained a filter paper strip treated with 10 μL of paraffin oil as the control. Moist, activated-charcoal filtered air entered both odor bottles connected by Teflon tubing to their respective arms of the Y-tube. The airflow rate through the olfactometer was 100 mL/min, which was measured by a float rotor meter. A newly emerged female S. mosellana adult was introduced into the end of the base of the Y-tube, which was then immediately covered with a dark paper box. An office lamp (20 W) illuminated the joint of two arms to facilitate observation. The choice was made if the S. mosellana female walked or flew 5 cm past the Y junction within 5 min and remained there for at least 15 s. Otherwise, it would be recorded as no-choice. Odor source was renewed for every five individuals. After testing for 10 individuals, the Y-tube was thoroughly cleaned with 95% ethanol and dried, and the treatment and control arms were switched to avoid the directional bias. After one odor source was tested, the Y-tube, odor bottles, and Teflon tubing were cleaned and dried before reuse. All experiments were conducted in a laboratory with a temperature of 25 ± 1 °C from 5:00 to 9:00 p.m. Sixty female adults were tested in each treatment group, and each individual was used only once. The choice response of insects in each treatment group was analyzed by the chi-square test using SPSS 20.0 software (Chicago, IL, USA). Non-selecting insects were recorded but not included in the statistical analysis.
# SmosOBP11 = test system: SmosOBP11; set-up: method as in PMID 31017726; conditions: cited from earlier work
# SmosOBP16 = test system: SmosOBP16; set-up: method as in PMID 31017726; conditions: cited from earlier work
# SmosOBP21 = test system: SmosOBP21; set-up: method as in PMID 31017726; conditions: cited from earlier work
structure (smiles),measurement,setting,value
C=CC(C)=CCC=C(C)C [Ocimene],Ki,SmosOBP12; listed as ocimene,8.2 µM
same,Ki,SmosOBP12,8.24 ± 0.03 µM
same,IC50,"SmosOBP12; displacement of 1-NPN, 2 μM protein, 2 μM 1-NPN, ligand 2–14 μM, three independent measurements, read-out: SmosOBP12 IC50",10.17 ± 0.04 µM
same,Ki,"SmosOBP17; calculated from IC50, Ki = [IC50]/(1 + [1-NPN]/K1-NPN)",> 30 µM
same,IC50,"SmosOBP17; displacement of 1-NPN, 2 μM protein, 2 μM 1-NPN, ligand 2–40 μM, three independent measurements, read-out: SmosOBP17 IC50",> 40 µM
same,binding to SmosOBP17 (in words),SmosOBP17; fluorescence competitive binding,insensitive; also recorded: did not bind
same,behavioral response of S. mosellana female adults,S. mosellana females,repelled; also recorded: intensive response; also recorded: significant repulsion; also recorded: strong repelling effect
same,binding to SmosOBP11 (in words),SmosOBP11,did not bind
same,binding to SmosOBP16 (in words),SmosOBP16,did not bind
same,binding to SmosOBP21 (in words),SmosOBP21,did not bind
